Experimental data: PMC10084252, “PAF‐induced inflammatory and immuno‐allergic ophthalmic diseases and their mitigation with PAF receptor antagonists: Cell and nuclear effects” (Biofactors (Oxford, England), 2022)
Where two headings read alike, the source gives them in different places. Where no end group is shown, it is not given here.

What was measured:
[1] = target: PAF receptor (Oryctolagus cuniculus, UniProt G1TEI7); experiment: [3H]‐PAF receptor binding to rabbit platelet membranes; conditions: read-out: [3H]‐PAF receptor binding inhibition constant (Ki, nM; Mean ± SEM)
Chain of PAF receptor (Oryctolagus cuniculus, UniProt G1TEI7) (G1TEI7 1-342): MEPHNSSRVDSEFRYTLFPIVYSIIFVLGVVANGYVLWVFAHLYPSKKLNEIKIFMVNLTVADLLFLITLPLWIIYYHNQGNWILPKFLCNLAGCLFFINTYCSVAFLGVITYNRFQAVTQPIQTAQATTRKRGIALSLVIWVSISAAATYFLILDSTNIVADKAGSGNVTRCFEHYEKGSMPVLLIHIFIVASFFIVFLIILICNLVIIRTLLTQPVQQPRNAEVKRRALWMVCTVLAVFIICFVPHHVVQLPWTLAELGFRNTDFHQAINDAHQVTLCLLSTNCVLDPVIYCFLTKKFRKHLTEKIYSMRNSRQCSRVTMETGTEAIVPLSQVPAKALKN
Description: (§1) FIGURE 5 Pharmacological profile of PAR receptor binding to platelet membranes. Figure 5A depicts the concentration‐dependent inhibition by unlabeled PAF receptor antagonists of different affinities for [^3H]‐PAF binding to rabbit platelet membranes in vitro. Figure 5B illustrates the correlation between the pharmacological profile of PAF receptor antagonists competing for [^3H]‐PAF binding to rabbit and human platelet membranes.

[2] = tested on: patients; parameters: method as in PMID 31816871; conditions: cited from earlier work
[3] = tested on: naïve mice; parameters: method as in PMID 15326102, PMID 20961214, PMID 24754407, PMID 2891830, PMID 8529415; conditions: cited from earlier work
[4] = tested on: animals; parameters: method as in PMID 7859817; conditions: intravitreally injected PAF, pretreatment; cited from earlier work
[5] = tested on: rod outer segments; parameters: method as in PMID 1427144; conditions: lithium‐ and light‐induced retinal degenerations animal models; cited from earlier work
[6] = parameters: method as in PMID 20454616, PMID 21804199, PMID 23355413, PMID 28341636; conditions: cited from earlier work
[7] = tested on: human chronic diseases; parameters: method as in PMID 31816871; conditions: ulcerative colitis, myocardiac infarction, organ failure associated with pancreatitis, cognitive decline after bypass surgery, psoriasis; cited from earlier work
[8] = tested on: human conjunctival epithelial cells (HCECs); parameters: method as in PMID 9261768; conditions: cited from earlier work; for EC50: read-out: EC50 for increase of [3H]‐IPs
[9] = target: T1, PAF receptor (Homo sapiens, UniProt P25105); experiment: [3H]‐PAF binding to human platelet membranes
T1 construct: from tissue; host or cells: human platelet membranes
T1 sequence (P25105 whole entry): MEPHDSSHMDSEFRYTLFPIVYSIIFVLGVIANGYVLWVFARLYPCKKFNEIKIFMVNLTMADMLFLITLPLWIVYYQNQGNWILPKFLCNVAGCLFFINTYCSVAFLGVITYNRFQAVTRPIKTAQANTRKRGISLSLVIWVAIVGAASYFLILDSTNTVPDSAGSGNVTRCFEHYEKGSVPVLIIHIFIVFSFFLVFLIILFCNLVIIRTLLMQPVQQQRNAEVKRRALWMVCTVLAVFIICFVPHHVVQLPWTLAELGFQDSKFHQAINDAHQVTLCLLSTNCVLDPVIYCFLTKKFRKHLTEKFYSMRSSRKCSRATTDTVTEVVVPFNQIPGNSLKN
Description: FIGURE 5 Pharmacological profile of PAR receptor binding to platelet membranes.

[10] = parameters: method as in PMID 31816871; conditions: cited from earlier work
[11] = tested on: patients suffering from rhinitis; parameters: method as in PMID 23459334, PMID 31470575; conditions: oral, 4‐week period of dosing; cited from earlier work
[12] = tested on: rats; parameters: method as in PMID 9845270; conditions: streptozotocin‐induced diabetes in rats; cited from earlier work
[13] = parameters: method as in PMID 31816871; conditions: cited from earlier work; remark: listed apart in the source
[14] = tested on: laser‐induced choroidal neovascularization (CNV) in mice; parameters: method as in PMID 23826375; conditions: cited from earlier work
[15] = target: T1, PAF receptor; experiment: [3H]‐WEB‐2086 binding to human platelet membranes; conditions: read-out: [3H]‐WEB‐2086 binding inhibition constant (Ki, nM; Mean ± SEM)
[16] = tested on: HIS and PAF receptors; parameters: method as in PMID 1793070; conditions: cited from earlier work
[17] = parameters: method as in PMID 31816871; conditions: cited from earlier work; remark: listed apart in the source
[18] = tested on: asthma patients; parameters: method as in PMID 31816871; conditions: cited from earlier work
[19] = target: PAF receptors in the bovine and rabbit cornea; parameters: method as in PMID 10067986; conditions: cited from earlier work
[20] = tested on: human conjunctival epithelial cells (HCECs); parameters: method as in PMID 19513187; conditions: cited from earlier work
[21] = tested on: PAF receptors on rabbit and human platelets; experiment: PAF receptor binding on platelets; conditions: Figure 5
Description: as §1

[22] = tested on: human conjunctival epithelial cells (HCECs); parameters: method as in PMID 19513187; conditions: cited from earlier work; remark: listed apart in the source
[23] = tested on: HCEPI/CEPI‐17‐CL4 cells; parameters: method as in PMID 9856766, PMID 9559896, PMID 9863665, PMID 10235542, PMID 20187806; conditions: cited from earlier work
[24] = tested on: patients; parameters: method as in PMID 31816871; conditions: cited from earlier work; remark: listed apart in the source
[25] = tested on: retinal capillary endothelial cells; parameters: method as in PMID 12356842; conditions: rat pups exposed to high levels of oxygen (model of ROP), prior treatment; cited from earlier work
[26] = tested on: photoreceptors; parameters: method as in PMID 15979612; conditions: retinal ischemia / oxidative stress; cited from earlier work
[27] = human platelet membranes, read-out: [3H]‐PAF receptor binding inhibition constant (Ki, nM; Mean ± SEM)

Compound: CCCCCCCCCCCCCCCCCCNC(=O)OC[C@@H](COCCCC[n+]1ccsc1)OC(=O)OC [RO‐19‐3704]
- Ki [1]: 201 ± 22.5 nM

Compound: CC1C(=O)OC2C(O)C34C5CC(C(C)(C)C)C36C(OC(=O)C6O)OC4(C(=O)O5)C12O (stereo not drawn) [BN‐52021(Ginkolide B), Ginkgolide B]
- PAF levels in patients [2]: reduction
- PAF‐induced ocular surface neovascularization [3]: inhibited
- PAF‐induced disruption of choroidal endothelial cell layer and polymorphonuclear leukocyte infiltration [4]: mostly abolished
- Damage to rod outer segments [5]: effectively suppressed

Compound: C#Cc1cccc2c1c(C(=O)c1ccc(Cn3c(C)nc4cnccc43)c(F)c1)cn2C(=O)N(C)C [ABT‐491]
- Pain induced by ATP‐triggered PAF release [6]: blocked

Compound: CCOC(=O)[C@H](CC(C)C)N(C)S(=O)(=O)c1ccc(Cn2c(C)nc3cnccc32)cc1 [Lexipafant]
- Efficacy in multiple human chronic diseases [7]: lack of efficacy

Compound: Cc1nnc2n1-c1sc3c(c1C(c1ccccc1Cl)=N[C@H]2C)CCN(C(=O)C1CC1)C3 [E‐6123]
- Ki [1]: 9.3 ± 0.3 nM

Compound: NCCc1c[nH]cn1 [HIS, histamine]
- EC50 [8]: 3100 nM

Compound: CN(C)C(=O)n1cc(C(=O)c2ccn3c2CS[C@@H]3c2cccnc2)c2ccc(-c3ccc(F)cc3)cc21 [A‐85783]
- Ki [1]: 6.9 ± 1 nM

Compound: CCC[n+]1cc(Br)cc(C(=O)N(CCC(=O)NCCOC(=O)N2CCc3ccccc3C2)c2ccccc2)c1.O=[N+]([O-])[O-] [TCV‐309]
- Ki [1]: 5.5 ± 0.2 nM
- Ki [9, 27]: 9.4 ± 3.1 nM
- Organ dysfunction and morbidity linked to septic shock [10]: reduction

Compound: CCOC[C@H](CC(C)C)N(C)S(=O)(=O)c1ccc(Cn2c(C)nc3cnccc32)cc1 [Nupafant]
- Ki [1]: 1.7 ± 0.6 nM

Compound: C#Cc1cccc2c1c(C(=O)c1ccc(Cn3c(C)nc4cnccc43)c(F)c1)cn2C(=O)N(C)C [A‐137491]
- Ki [9]: 3.9 ± 0.5 nM

Compound: Clc1ccc2c(c1)CCc1cccnc1C2=C1CCNCC1 [des‐loratadine]
- Nasal discharge, sneezing and nasal itching [11]: significantly reduced
- Ocular itching [11]: significantly reduced

Compound: Cc1nnc2n1-c1sc(CCC(=O)N3CCOCC3)cc1C(c1ccccc1Cl)=NC2 [WEB‐2086]
- Retinal blood vessel density [12]: helped preserve
- Erythema induced by UV‐light [13]: reduction
- Choroidal neovascularization and subretinal fibrosis induced by PAF [14]: inhibited
- Fluoresceine leakage (retinal vascular leakage) after laser‐induced CNV ([14]; mice, prior treatment, intraperitoneal and intravitreal administration): blockade

Compound: C[C@@H]1S[C@H](c2cccnc2)N(C)C1=O [SM‐10661]
- Ki [1]: 7490 ± 875 nM
- Ki [15]: 9850 ± 1350 nM
- Ki [9, 27]: 22800 nM

Compound: Cc1cncc(CN2CCC(=C3c4ccc(Cl)cc4CCc4cccnc43)CC2)c1 [SCH‐37370 (Rupatadine), Rupatadine]
- Affinities and potencies at both HIS and PAF receptors (in words) [16]: micromolar
- Effects in chronic idiopathic urticaria and allergic rhino‐conjunctivitis [17]: beneficial effects
- Nasal discharge, sneezing and nasal itching [11]: significantly reduced
- Ocular itching [11]: significantly reduced

Compound: COc1ccc(NC(=S)N2CCc3c(sc4c3C(c3ccccc3Cl)=NCc3nnc(C)n3-4)C2)cc1 [BN‐50730 (Rocipafant) LAU‐8080, Rocipafant]
- Ki [1]: 44.8 ± 7.2 nM

Compound: bradykinin (RPPGFSPFR; Bradykinin; UniProt P01042 381-389, looked up) [BK, mast cell mediator]
- EC50 [8]: 0.83 nM

Compound: CC(C)c1cc(C(C)C)c(-c2csc(N(CCN(C)C)Cc3cccnc3)n2)c(C(C)C)c1 [SR27417A]
- Efficacy in multiple human chronic diseases [7]: lack of efficacy
- Efficacy in asthma patients [18]: modest efficacy

Compound: platelet‐activating factor [PAF]
- Ki [1]: 3.7 ± 0.4 nM
- Kd [19]: 0.8 to 4.3 nM
- Ki [15]: 26.5 ± 2 nM
- Ki [9, 27]: 3.1 ± 0.6 nM
- EC50 [8]: 4.5 nM
- EC50 ([20]; read-out: EC50 for [Ca2+]i mobilization): 0.81 nM
- Kd [21]: 0.5 nM

Compound: COC(=O)C1=C(C)NC(C)=C(C(=O)OCCSc2ccccc2)C1C (stereo not drawn) [PCA‐4248]
- Effect on PAF‐induced synthesis and secretion of IL‐6, IL‐8 and GM‐CSF [22]: curtailed
- Ki [9, 27]: 634 nM
- Effect on PAF‐induced IPs production [23]: blocked
- Antagonism of PAF‐induced [Ca2+]i mobilization [20]: antagonized

Compound: CC(C)(CCN1CCN(C(=O)C2CSC(c3cccnc3)N2)CC1)c1ccccc1 (stereo not drawn) [YM‐264]
- Ki [1]: 5.1 ± 0.6 nM
- Ki [9, 27]: 7.3 ± 1.8 nM

Compound: COc1ccc(SCC(=S)N2CCc3c(sc4c3C(c3ccccc3Cl)=NCc3nnc(C)n3-4)C2)cc1OC [BN‐50739]
- Ki [1]: 28.6 ± 8.4 nM
- Ki [9, 27]: 53.4 ± 1.9 nM

Compound: Hexanolamine
- Ki [1]: 164 ± 15.4 nM

Compound: CCCCC/C=C\C\C=C/C=C/C=C/[C@@H](SC[C@H](NC(=O)CC[C@H](N)C(=O)O)C(=O)NCC(=O)O)[C@@H](O)CCCC(=O)O [LTC4]
- EC50 [8]: 300 nM

Compound: endothelin (CSCSSLMDKECVYFCHLDIIW; ends and bridges not checked; cysteine pairing not given here; UniProt P05305 53-73, looked up)
- Stimulation of [3H]‐IPs (in words) [8]: inactive

Compound: Cc1nnc2n1-c1sc(CCc3ccc(CC(C)C)cc3)cc1C(c1ccccc1Cl)=NC2C (stereo not drawn) [Y‐24180]
- Bronchial hyperresponsiveness [24]: improvement

Compound: CCCCCCCCCCCCCCCCCCNC(=O)OCC(COP(=O)([O-])OCC[n+]1ccsc1)OC (stereo not drawn) [CV‐3988]
- Ki [1]: 2900 ± 240 nM
- Effect on PAF‐induced synthesis and secretion of IL‐6, IL‐8 and GM‐CSF [22]: curtailed
- PAF‐induced ocular surface neovascularization [3]: inhibited
- Ki [15]: 3780 ± 759 nM
- Ki [9, 27]: 3090 ± 889 nM
- Loss of retinal capillary endothelial cells [25]: reduced
- Antagonism of PAF‐induced [Ca2+]i mobilization [20]: antagonized

Compound: CCOC(=O)C1=C(c2ccc(-n3c(C)nc4cnccc43)cc2)NC(C)=C(C(=O)Nc2ccccn2)[C@H]1c1ccccc1Cl [Modipafant]
- Efficacy in multiple human chronic diseases [7]: lack of efficacy

Compound: substance P (RPKPQQFFGLM; ends and bridges not checked; UniProt P20366 58-68, looked up)
- Stimulation of [3H]‐IPs (in words) [8]: inactive

Compound: CCCCCCCCOc1ccccc1C(=O)Nc1ccc(C(=O)OCC[N+](C)(CC)CC)cc1 [Octylonium]
- Ki [9, 27]: 4335 ± 17.8 nM

Compound: CCCCC[C@H](O)/C=C/[C@@H]1[C@@H](C/C=C\CCCC(=O)O)[C@@H](O)C[C@H]1O [PGF2α]
- Stimulation of [3H]‐IPs (in words) [8]: inactive

Compound: CC1=C(C(=O)OCCOc2ccc(Cl)c(Cl)c2)C(C)C(C(=O)OC(CN2CCOCC2)CN2CCOCC2)=C(C)N1 (stereo not drawn) [LAU0901]
- Protection of photoreceptors and their terminals [26]: efficaciously protected
